Measurements taken from patent publication US5215972A, “Steroids” (Hoffmann-La Roche Inc., priority 1989, dated 1993).
Counter-ions that a name gives are not always drawn. Like-named read-outs stand apart in the source and are kept apart here.

What was measured:
[1] = system: intestinal resorption of cholesterol; assay: Inhibition of intestinal resorption of [26-^14 C]-cholesterol (CHORES) in squirrel monkeys; assay type: in vivo; conditions: Primates, po, 60 h, 100 μmol/kg p.o., percent of control values determined prior to medication (pre-period), feces collected 2.5 days
Description: Squirrel monkeys are orally administered the substances to be investigated together with a test feed containing a protein, starch, triolein and [26-^14 C]-cholesterol. Thereafter, the feces is collected for 2.5 days. The difference between the administered and the collected radioactive cholesterol determined in the feces is taken as the measurement of resorbed cholesterol. The cholesterol resorption (CHORES) is expressed in percentages of the control values determined prior to the medication.
(§1) The results which have been obtained with some representative products in accordance with the invention are reproduced in Table I. For each of the compounds indicated in Table I the cholesterol resorption, determined at a dosage of 100 μmol/kg p.o., is given in percentages of the control values determined prior to the medication (pre-period). Moreover, the Table contains data concerning the acute toxicity of the compounds investigated (LD50 in mg/kg in the case of single oral or intravenous administration to mice).

[2] = Acute toxicity, single oral or intravenous administration to mice; conditions: mouse, in vivo
Description: as §1

[3] = i.v., single intravenous administration to mice, read-out: LD50 i.v.
[4] = p.o., single oral administration to mice, read-out: LD50 p.o.

SMILES	response vs control in vivo at 100 µmol/kg [1] [%]	LD50 [2, 3] [mg/kg]	LD50 [2, 4] [mg/kg]
CC[C@H](/C=C/[C@@H](C)[C@H]1CC[C@H]2[C@@H]3CC=C4C[C@@H](OCCOP(=O)([O-])OCC[N+](C)(C)C)CC[C@]4(C)[C@H]3CC[C@]12C)C(C)C [Example 2r, O-[hydroxy-[2-(stigmasta-5,22-dien-3β-yloxy)ethoxy]phosphinyl]cholinehydroxide internal salt]	37	500	4000
CC[C@H](CC[C@@H](C)[C@H]1CC[C@H]2[C@@H]3CC[C@H]4C[C@@H](OC(=O)OCCOP(=O)([O-])OCC[N+](C)(C)C)CC[C@]4(C)[C@H]3CC[C@]12C)C(C)C [Example 2a, O-[[2-[[(5α-stigmastan-3β-yloxy)carbonyl]oxy]ethoxy]hydroxyphosphinyl]choline hydroxide internal salt]	38	250	4000
CC[C@H](CC[C@@H](C)[C@H]1CC[C@H]2[C@@H]3CC[C@H]4C[C@@H](OC(=O)NCCOP(=O)([O-])OCC[N+](C)(C)C)CC[C@]4(C)[C@H]3CC[C@]12C)C(C)C [Example 5, O-[hydroxy-[2-[1-(5α-stigmastan-3β-yloxy)formamido]ethoxy]phosphinyl]choline hydroxide internal salt]	40	–	–
CC(C)CCC[C@@H](C)[C@H]1CC[C@H]2[C@@H]3CC=C4C[C@@H](OCCOP(=O)([O-])OCC[N+](C)(C)C)CC[C@]4(C)[C@H]3CC[C@]12C [Example 2q, O-[[2-(cholest-5-en-3β-yloxy)ethoxy]hydroxyphosphinyl]choline hydroxide internal salt]	16	250	4000
CC[C@H](/C=C/[C@@H](C)[C@H]1CC[C@H]2[C@@H]3CC=C4C[C@@H](OC(=O)NCCOP(=O)([O-])OCC[N+](C)(C)C)CC[C@]4(C)[C@H]3CC[C@]12C)C(C)C [Example 7a, O-[hydroxy-[2-[1-[(E)-stigmasta-5,22-dien-3β-yloxy]formamido]ethoxy]phosphinyl]choline hydroxide internal salt]	35	–	–
CC[C@H](CC[C@@H](C)[C@H]1CC[C@H]2[C@@H]3CC[C@H]4C[C@@H](OC(=O)CCCOP(=O)([O-])OCC[N+](C)(C)C)CC[C@]4(C)[C@H]3CC[C@]12C)C(C)C [Example 2k, O-[hydroxy-[3-[(3β-stigmastanyloxy)carbonyl]propoxy]phosphinyl]choline hydroxide internal salt]	39	250	4000
CC[C@H](CC[C@@H](C)[C@H]1CC[C@H]2[C@@H]3CC[C@H]4C[C@@H](OCCOCCOP(=O)([O-])OCC[N+](C)(C)C)CC[C@]4(C)[C@H]3CC[C@]12C)C(C)C [Example 4a, O-[hydroxy-[2-[2-(3β-stigmastanyloxy)ethoxy]ethoxy]phosphinyl]cholinehydroxide internal salt]	30	–	–
CC[C@H](CC[C@@H](C)[C@H]1CC[C@H]2[C@@H]3CC[C@H]4C[C@@H](OC(=O)NCCOP(=O)([O-])OCC[n+]5ccccc5)CC[C@]4(C)[C@H]3CC[C@]12C)C(C)C [Example 6, 1-[2-[[hydroxy-[2-[1-(5α-stigmastan-3β-yloxy)-formamido]ethoxy]phosphinyl]oxy]ethyl]pyridinum hydroxide internal salt]	31	–	4000
CC[C@H](CC[C@@H](C)[C@H]1CC[C@H]2[C@@H]3CC=C4C[C@@H](OC(=O)OCCOP(=O)([O-])OCC[N+](C)(C)C)CC[C@]4(C)[C@H]3CC[C@]12C)C(C)C [Example 16, O-[hydroxy-[2-[[(stigmast-5-en-3β-yloxy)carbonyl]oxy]ethoxy]-phosphinyl]choline hydroxide internal salt]	40	–	–
